Measured values published in patent US5104859A, “Continuous administration of adenosine to reduce pulmonary vascular resistance” (priority 1990, dated 1992).
“Also recorded” adds a separate entry of the source.

How the values were obtained:
[1] = Purine levels in arterial plasma before, during and after adenosine-induced controlled hypotension (HPLC); conditions: in vivo
Description: Blood gases were measured with appropriate electrodes for pH, PCO2, and PO2 (Radiometer, Copenhagen). The hemoglobin concentration was determined spectrophotometrically. Samples for the determination of adenosine and its metabolites were collected as described by Sollevi et al., Acta Physiol. Scand., 120: 171-76 (1984). Adenosine and inosine were purified and analyzed by HPLC as described by Fredholm and Sollevi., J. Physiol. (London), 313: 351-67 (1981). Hypoxanthine, xanthine, and uric acid were analyzed by HPLC according to the method of Schweinsberg and Loo., J. Chromatogr., 181: 103-7 (1980). Arterial levels of dipyridamole were determined by HPLC. J. Chromatogr., 162: 98-103 (1979). Blood lactate was measured according to Tfelt-Hansen and Siggard-Andersen. Scand. Clin. Lab. Invest., 27:15-19 (1971).
Measurements and blood samplings were performed immediately before hypotension, as late as possible during hypotension (1-5 min before terminating the infusion) and approximately 30 min after the hypotensive period.
Dipyridamole (5 mg. per ml) was infused iv (0.3-0.4 mg. per kg. over a period of 5-10 min) approximately 20 minutes prior to the induction of controlled hypotension. […] (See Pedersen, J. Chromatogr., 162: 98-103 (1979).
(§1) The infusion was started at a rate of 0.01 mg. per kg. per minute, which was doubled at 15 second intervals until the desired MABP level of 40-50 mmHg was reached. […] Serum creatinine was determined before and on two consecutive days after operation. The standard ECG was recorded the day before and the day after operation.
The statistical significance (control 1 vs. adenosine and control 1 vs. control 2) was determined by Student's t test for paired data. A P value of <0.05 was regarded as significant.
The purine levels of nine of the patients were determined prior to, during and after adenosine-induced controlled hypotension.

central hemodynamics = assay: Per cent change of hemodynamics: adenosine, SNP and TNG induced controlled hypotension during cerebral aneurysm surgery; assay type: in vivo, human
Description: One hour before the operation the patients were premedicated orally with diazepam (10-20 mg.) Atropine (0.5 mg) and droperidol (0.1 mg. per kg.) were given intravenously before induction of anesthesia. Induction was started with thiopental (5 mg. per kg) followed by phenoperidine (1-2 mg), a synthetic opiate with pharmacodymanics resembling fentanyl but with a longer duration of action and 1/10 of its analgesic potency.
Pancuronium bromide (0.1 mg per kg) was given to facilitate endotracheal intubation. Anesthesia was maintained by supplementary doses of phenoperidine and droperidol, as required. […] Phenoperidine was supplemented regularly to prevent the blood pressure from exceeding the preanesthetic level (approx. 1 mg/30-60 min). Controlled hyperventilation was employed with a humidified gas mixture of 60% N2 O in oxygen to maintain PaCO2 values at approximately 30 mmHg (±1.5/SEM). Mannitol (1-1.5 g. per kg) was given routinely at the start of the operation (e.g., 1-2 hours prior to the controlled hypotension). The patients were operated on in the horizontal supine position.
A 1.2-mm plastic cannula was introduced into the left radial artery to monitor systemic arterial blood pressure (MABP) and collect arterial blood. A balloon-tipped, flow-directed, quadruple lumen Swan-Ganz catheter (Model 93A-831-7.5 F, VIP) was inserted percutaneously via the left basilic vein, and its correct position in the pulmonary artery was determined by pressure tracings. The catheter was used for the monitoring of mean right atrial pressure (RAP), mean pulmonary artery pressure (PAP), and mean pulmonary capillary wedge pressure (PCWP) for the determination of cardiac output and collection of mixed venous blood and for the infusion of adenosine. Another plastic cannula was introduced percutaneously, in a retrograde direction, into the right jugular bulb for the collection of blood. The correct position was verified by x-ray.
The ECG was monitored with a standard chest (V5) lead. Heart rate was determined from the R-R interval. Blood pressures were measured by transducers placed at the midthoracic level. Cardiac output (QT) was determined in triplicate according to the thermodilution technique with a cardiac output computer (Edwards Lab, model 9510). Isotonic glucose, 10 ml at 1° C., was used as a thermal indicator. The ECG, heart rate, blood pressures, and thermodilution curves were recorded on a Grass® polygraph.
as §1
Subsequent to the tests described above, a 20 mM solution of adenosine in isotonic saline was administered to 50 surgical patients employing techniques similar to those described, except that pretreatment with dipyridamole was omitted.

[2] = system: atrio-ventricular (A-V) node; assay: Atrio-ventricular conductance / heart block; assay type: in vivo, human
Description: In accordance with this invention, adenosine may be administered to human patients by continuous intravenous infusion to provide significant vasodilation and without significant heart blockage under two conditions. First, the heart blocking action of adenosine is not detected during anesthesia when the rate of administration is 0.35 milligrams of adenosine per kilogram of body weight per minute or less. Second, the heart blocking action of adenosine is not detected, even in conscious patients, at rates of administration of about 0.10 milligram of adenosine per kilogram of body weight per minute or less.

cardiac output = assay: Cardiac output; assay type: in vivo, human; conditions: for cardiac output and heart work (words): intravenous infusion
Description: This is in contrast to other vasodilators, such as sodium nitroprusside, which may reduce cardiac output, depending on the hemodynamic status of the patient. As a consequence, adenosine can be used to stimulate cardiac output in patients with low cardiac output states, due, for example, to heart surgery, infarct and the like.
For this application, effective dosages are intermediate those used for increased graft flow and controlled hypotension. Typically the effective dose is of the order of 40-80 ug/kg/per minute. The duration of treatment can be as long as required to support the heart.

[3] = system: mean arterial blood pressure; conditions: dogs, cited from earlier work
[4] = Fredholm and Sollevi; cited from earlier work
cardiovascular system = assay: General activity profile of adenosine by continuous infusion; conditions: for tachyphylaxis / rebound hypertension (words): hypotension

Structure (SMILES): Nc1ncnc2c1ncn2[C@@H]1O[C@H](CO)[C@@H](O)[C@H]1O [adenosine]
- concentration ([1]; human, iv): 2450 ± 650 nM
- time for arterial adenosine levels to return to control values after termination of infusion [1]: 3 to 9 min
- HR, change from control (central hemodynamics; Table IV, n = 10): +9 Per Cent from Control
- MABP, change from control (central hemodynamics; Table IV, n = 10): -43 Per Cent from Control
- PAP, change from control (central hemodynamics; Table IV, n = 10): +15 Per Cent from Control
- PCWP, change from control (central hemodynamics; Table IV, n = 10): +14 Per Cent from Control
- PVR, change from control (central hemodynamics; Table IV, n = 10): -15 Per Cent from Control
- QT (cardiac output), change from control (central hemodynamics; Table IV, n = 10): +44 Per Cent from Control
- RAP, change from control (central hemodynamics; Table IV, n = 10): +6 Per Cent from Control
- SVR, change from control (central hemodynamics; Table IV, n = 10): -61 Per Cent from Control
- oxygen tissue pressures vs nitroprusside (central hemodynamics; controlled hypotension): better preserves oxygen tissue pressures
- heart block in conscious patients ([2]; about 0.10 mg/kg/min or less): not detected
- heart block / blockage of A-V conductance during anesthesia ([2]; anesthesia, 0.35 mg/kg/min or less, 0.35 mg/kg): not detected; also recorded: does not occur; also recorded: no blockage of atrio-ventricular conductance is observed
- A-V activity at vasodilating doses ([2]; continuous infusion): significant useful vasodilating action at dosages below those at which it has significant A-V activity
- cardiac output on termination of adenosine (cardiac output; 40-80 ug/kg/per minute): frequently remains above the cardiac output prior to treatment
- cardiac output and heart work (words) (cardiac output): increase cardiac output without increasing heart work
- cardiac output and heart work (words) (cardiac output; listed as Adenosine): significantly increasing cardiac output without significantly increasing cardiac work
- mean arterial pressure with adenosine after dipyridamole ([3]; 50 ug/kg/minute adenosine): 40 mm/Hg
- adenosine dose required for induction of hypotension without dipyridamole ([3]; pilot study, as much as): 5 to 10 mg/kg/min
- plasma half-life [4]: 10 to 20 s
- toxicity (cardiovascular system; amounts used in accordance with the invention): essentially non-toxic
- after-load and pre-load (cardiovascular system; continuous infusion): little or no effect on cardiac pre-load; also recorded: reduce after-load, without having significant effect on pre-load
- tachyphylaxis / rebound hypertension (words) (cardiovascular system): does not cause tachyphylaxis; also recorded: rebound hypertension is avoided
- tachyphylaxis / rebound hypertension (words) (cardiovascular system; listed as Adenosine): without the occurrence of significant tachyphylaxis
- heart rate on after-load reduction (cardiovascular system; in vivo): without significantly increasing heart rate
